Measurements: the supplement of paper PMC11061612

Tests used:
[1] = test system: EW-3 (Ewing's Sarcoma); assay: combination Emax (second highest fraction inhibited in the dose matrix, 72 h); higher = more inhibition; extreme values may be limits of the assay
Procedure, shortened: (§1)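 Bliss excess equals the observed combination effect minus the expected value EA + EB − EA·EB, where EA and EB are the effects of each agent alone. Combination Emax is the second-highest inhibition within the matrix. Inhibition was scaled from CellTiter-Glo 2.0 luminescence, with 0 set by vehicle wells and 1 by blank wells, after 72 hours of two-drug dosing of cells plated in 1536-well plates.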

[2] = test system: HSC-2 (Oral Cavity Carcinoma); assay: as above
Procedure, shortened: as §1

[3] = test system: NB7 (Neuroblastoma); assay: as above
Procedure, shortened: as §1

[4] = test system: SCC-9 (Oral Cavity Carcinoma); assay: as above
Procedure, shortened: as §1

[5] = test system: LC4-1 (B-Lymphoblastic Leukemia); assay: as above
Procedure, shortened: as §1

[6] = test system: TGBC11TKB (Gastric Carcinoma); assay: as above
Procedure, shortened: as §1

[7] = test system: OCUM-1 (Gastric Carcinoma); assay: as above
Procedure, shortened: as §1

[8] = test system: GI-1 (Glioblastoma); assay: as above
Procedure, shortened: as §1

[9] = test system: NCI-N87 (Gastric Carcinoma); assay: as above
Procedure, shortened: as §1

[10] = test system: OCUB-M (Breast Carcinoma); assay: as above
Procedure, shortened: as §1

[11] = test system: SNU-C1 (Colorectal Carcinoma); assay: as above
Procedure, shortened: as §1

[12] = test system: VMRC-LCD (Lung Adenocarcinoma); assay: as above
Procedure, shortened: as §1

[13] = test system: KINGS-1 (Low Grade Glioma); assay: as above
Procedure, shortened: as §1

[14] = test system: H-EMC-SS (Chondrosarcoma); assay: as above
Procedure, shortened: as §1

[15] = test system: JHH-7 (Hepatocellular Carcinoma); assay: as above
Procedure, shortened: as §1

[16] = test system: EW-3 (Ewing's Sarcoma); assay: Bliss excess, mean over the matrix (fraction); higher = more synergy
Procedure, shortened: as §1

[17] = test system: HSC-2 (Oral Cavity Carcinoma); assay: as above
Procedure, shortened: as §1

[18] = test system: NB7 (Neuroblastoma); assay: as above
Procedure, shortened: as §1

[19] = test system: SCC-9 (Oral Cavity Carcinoma); assay: as above
Procedure, shortened: as §1

[20] = test system: LC4-1 (B-Lymphoblastic Leukemia); assay: as above
Procedure, shortened: as §1

[21] = test system: TGBC11TKB (Gastric Carcinoma); assay: as above
Procedure, shortened: as §1

[22] = test system: OCUM-1 (Gastric Carcinoma); assay: as above
Procedure, shortened: as §1

[23] = test system: GI-1 (Glioblastoma); assay: as above
Procedure, shortened: as §1

[24] = test system: NCI-N87 (Gastric Carcinoma); assay: as above
Procedure, shortened: as §1

[25] = test system: OCUB-M (Breast Carcinoma); assay: as above
Procedure, shortened: as §1

[26] = test system: SNU-C1 (Colorectal Carcinoma); assay: as above
Procedure, shortened: as §1

[27] = test system: VMRC-LCD (Lung Adenocarcinoma); assay: as above
Procedure, shortened: as §1

[28] = test system: KINGS-1 (Low Grade Glioma); assay: as above
Procedure, shortened: as §1

[29] = test system: H-EMC-SS (Chondrosarcoma); assay: as above
Procedure, shortened: as §1

[30] = test system: JHH-7 (Hepatocellular Carcinoma); assay: as above
Procedure, shortened: as §1

Row | Compound | combination Emax [1] | combination Emax [2] | combination Emax [3] | combination Emax [4] | combination Emax [5] | combination Emax [6] | combination Emax [7] | combination Emax [8] | combination Emax [9] | combination Emax [10] | combination Emax [11] | combination Emax [12] | combination Emax [13] | combination Emax [14] | combination Emax [15] | Bliss excess [16] | Bliss excess [17] | Bliss excess [18] | Bliss excess [19] | Bliss excess [20] | Bliss excess [21] | Bliss excess [22] | Bliss excess [23] | Bliss excess [24] | Bliss excess [25] | Bliss excess [26] | Bliss excess [27] | Bliss excess [28] | Bliss excess [29] | Bliss excess [30]
1 | Cc1c2c(nn1C)CSCc1cc(n(C)n1)CSc1cc(c3ccccc3c1)OCCCc1c(C(=O)O)n(C)c3c-2c(Cl)ccc13 [AZD5991] + Nc1ccn([C@@H]2O[C@H](CO)[C@@H](O)C2(F)F)c(=O)n1 [Gemcitabine] (first compound max 1 µM, 7x7, partner max 0.3 µM) | 0.935 | 0.992 | 0.844 | 0.237 | 0.975 | 0.929 | 0.656 | 0.86 | 0.61 | 1 | 0.449 | 0.539 | 0.195 | 0.594 | 0.314 | 0.0096 | 0.0273 | 0.0093 | -0.0216 | 0.0158 | -0.0006 | -0.0565 | -0.0002 | -0.0095 | 0.0283 | 0.0119 | 0.0333 | -0.0719 | -0.005 | -0.0114
2 | C[C@@H](Oc1cc(-c2cnn(C3CCNCC3)c2)cnc1N)c1c(Cl)ccc(F)c1Cl [Crizotinib] + Cn1cnc2c(F)c(Nc3ccc(Br)cc3Cl)c(C(=O)NOCCO)cc21 [Selumetinib] (first compound max 10 µM, 7x7, partner max 10 µM) | 0.525 | 0.551 | 0.443 | 0.919 | 0.896 | 0.557 | 0.936 | 0.602 | 0.383 | 0.458 | 0.892 | 0.665 | 0.799 | 0.405 | 0.56 | -0.134 | -0.0618 | -0.0033 | 0.0117 | -0.0198 | 0.0524 | 0.0251 | -0.0355 | -0.0764 | 0.0034 | 0.0325 | -0.0474 | 0.0342 | -0.0166 | -0.0152
3 | C[C@@H](Nc1cc(F)cc(F)c1)c1cc(C(=O)N(C)C)cc2c(=O)cc(N3CCOCC3)oc12 [AZD8186] + C1CN(CCC1(C(=O)N[C@@H](CCO)C2=CC=C(C=C2)Cl)N)C3=NC=NC4=C3C=CN4 [AZD5363] (first compound max 10 µM, 7x7, partner max 10 µM) | 0.239 | 0.667 | 0.864 | 0.351 | 0.398 | 0.126 | 0.513 | 0.751 | 0.629 | 1 | 0.586 | 0.0947 | 0.422 | 0.448 | 0.25 | 0.0017 | -0.0041 | -0.0059 | -0.0225 | 0.027 | -0.0235 | -0.0101 | 0.0399 | 0.0125 | 0.019 | -0.0605 | -0.025 | -0.0307 | -0.0314 | -0.0665
4 | C[C@@H](Oc1cc(-c2cnn(C3CCNCC3)c2)cnc1N)c1c(Cl)ccc(F)c1Cl [Crizotinib] + CC1=C(C(=CC=C1)Cl)NC(=O)C2=CN=C(S2)NC3=CC(=NC(=N3)C)N4CCN(CC4)CCO [Dasatinib] (first compound max 10 µM, 7x7, partner max 2 µM) | 0.571 | 0.923 | 0.689 | 0.966 | 0.866 | 0.176 | 0.354 | 0.969 | 0.607 | 0.391 | 0.683 | 0.657 | 0.788 | 0.402 | 0.422 | -0.0728 | -0.0097 | 0.0924 | 0.0429 | -0.0147 | -0.0343 | -0.0693 | 0.132 | -0.0251 | -0.0666 | -0.056 | -0.0545 | 0.0575 | -0.004 | -0.0142
